Publication PMC7083851, “Extended pharmacodynamic responses observed upon PROTAC-mediated degradation of RIPK2” (Communications Biology, 2020)
Where “and” joins values, the source holds several entries; their conditions need not be identical. Equal entries are not always repeated. Where two headings read alike, the source gives them in different places.

How the values were obtained:
[1] = High-throughput precipitation solubility, chemiluminescent nitrogen-specific detection (CLND); type: physicochemical; conditions: high-throughput
Hepatocyte CLint, human = type: in vitro ADME; conditions: human liver hepatocytes
Method: Metabolic stability was performed at Cyprotex (UK). Pooled liver microsomes / cryopreserved pooled hepatocytes were purchased from a commercial supplier (BD Biosciences or Corning/InVitro Technologies).
The final incubation volume was 500 µL. An appropriate vehicle control was used. Each compound was incubated for 0, 5, 10, 20, 40, and 60 min. The control (vehicle) was incubated for 60 min.
All incubations were terminated by transferring 50 μL of incubate to 100 μL of acetonitrile containing internal standard at the appropriate time points. The termination plates were centrifuged at 2500 rpm for 20–30min at 4 °C to precipitate the protein. Following protein precipitation, samples were analysed using quantitative LC-MS/MS.

[2] = Blood concentrations after subcutaneous dosing in rat PK/PD studies; type: in vivo
Method: Female CD rats (7–8 weeks old on arrival, Charles River Ltd.) were placed into groups using a randomization schedule based on body weight prior to the study start. All animals were acclimatized for a minimum of one week prior to the experiment commencing. […] PROTAC 4 was dissolved in saline with the pH adjusted to 5.0 with sodium hydroxide (1 M).

For `CN[C@@H](C)C(=O)N[C@H](C(=O)N1CCC[C@H]1c1nc(C(=O)c2ccc(F)cc2)cs1)C1CCN(C(=O)c2cnc(N3CCN(CCOc4cc5ncnc(Nc6n[nH]c(C)c6C)c5cc4S(=O)(=O)C(C)(C)C)CC3)nc2)CC1` [PROTAC 4], the solubility [1] was > 311 µM, the clearance in hepatocytes (Hepatocyte CLint, human) was < 0.45 mL/min/g liver and the “blood concentration, individual rat” value ([2]; 5 mg/kg SC, 14-day study, 0.25 h) was 79.2 ng/mL and 80.8 ng/mL and 137 ng/mL. For the same compound, the “PK, blood concentration, individual rat” value ([2]; 20 mg/kg SC single dose, 7-day study, 0.25 h) was 142.1 ng/mL and 262.3 ng/mL and 219.2 ng/mL and 88.3 ng/mL and 114.7 ng/mL, the “PK, blood concentration, individual rat” value ([2]; 20 mg/kg SC single dose, 7-day study, 0.5 h) was 113.3 ng/mL and 220.7 ng/mL and 177.2 ng/mL and 88.4 ng/mL and 248.8 ng/mL and the “PK, blood concentration, individual rat” value ([2]; 20 mg/kg SC single dose, 7-day study, 1 h) was 131.0 ng/mL and 198.9 ng/mL and 114.6 ng/mL and 195.5 ng/mL. The “PK, blood concentration, individual rat” value ([2]; 20 mg/kg SC single dose, 7-day study, 2 h) was 110.9 ng/mL and 278.2 ng/mL and 204.9 ng/mL and 96.5 ng/mL and 292.6 ng/mL, the “PK, blood concentration, individual rat” value ([2]; 20 mg/kg SC single dose, 7-day study, 4 h) was 211.6 ng/mL and 307.5 ng/mL and 375.8 ng/mL and 186.8 ng/mL and 240.9 ng/mL and the “PK, blood concentration, individual rat” value ([2]; 20 mg/kg SC single dose, 7-day study, 8 h) was 104.7 ng/mL and 227.5 ng/mL and 262.0 ng/mL and 193.4 ng/mL and 268.5 ng/mL. The “PK, blood concentration, individual rat” value ([2]; 20 mg/kg SC single dose, 7-day study, 24 h) was 240.6 ng/mL and 261.7 ng/mL and 347.0 ng/mL and 497.6 ng/mL and 315.9 ng/mL and 347 ng/mL, the “PK, blood concentration, individual rat” value ([2]; 20 mg/kg SC single dose, 7-day study, 72 h) was 253.7 ng/mL and 143.8 ng/mL and 111.7 ng/mL and 90.2 ng/mL and 121.5 ng/mL and 90.15 ng/mL and the “PK, blood concentration, individual rat” value ([2]; 20 mg/kg SC single dose, 7-day study, 168 h) was 15.0 ng/mL and 7.4 ng/mL and 9.6 ng/mL and 9.4 ng/mL and 6.1 ng/mL and 15.02 ng/mL and 7.438 ng/mL and 9.644 ng/mL and 9.399 ng/mL and 6.103 ng/mL. The “blood concentration, individual rat” value ([2]; 20 mg/kg SC, 14-day study, 0.25 h) was 103 ng/mL and 111 ng/mL and 92.3 ng/mL and 10.6 ng/mL and 39.4 ng/mL, the “blood concentration, individual rat” value ([2]; 20 mg/kg SC, 14-day study, 0.5 h) was 115 ng/mL and 140 ng/mL and 82.5 ng/mL and 99.9 ng/mL and the “blood concentration, individual rat” value ([2]; 20 mg/kg SC, 14-day study, 1 h) was 173 ng/mL and 63.3 ng/mL and 90.1 ng/mL and 113 ng/mL and 45.9 ng/mL. The “blood concentration, individual rat” value ([2]; 20 mg/kg SC, 14-day study, 2 h) was 141 ng/mL and 113 ng/mL and 120 ng/mL and 223 ng/mL, the “blood concentration, individual rat” value ([2]; 20 mg/kg SC, 14-day study, 4 h) was 226 ng/mL and 313 ng/mL and 572 ng/mL and 294 ng/mL and 206 ng/mL and the “blood concentration, individual rat” value ([2]; 20 mg/kg SC, 14-day study, 8 h) was 159 ng/mL and 180 ng/mL and 329 ng/mL and 167 ng/mL and 200 ng/mL. The “blood concentration, individual rat” value ([2]; 20 mg/kg SC, 14-day study, 24 h) was 698 ng/mL and 518 ng/mL and 213 ng/mL and 503 ng/mL and 150 ng/mL, the “blood concentration, individual rat” value ([2]; 20 mg/kg SC, 14-day study, 72 h) was 14.1 ng/mL and 69.4 ng/mL and 30 ng/mL and 33.4 ng/mL and 57.6 ng/mL and the “blood concentration, individual rat” value ([2]; 20 mg/kg SC, 14-day study, 168 h) was 3.47 ng/mL and 10.5 ng/mL and 2.32 ng/mL and 3.82 ng/mL and 4.88 ng/mL. For the same compound, the “blood concentration, individual rat” value ([2]; 20 mg/kg SC, 14-day study, 240 h) was 1.11 ng/mL and 2.09 ng/mL and 1.34 ng/mL, the concentration at 7 days ([2]; rat, blood, sc, 20 mg/kg, rat, single 20 mg/kg SC, after 7 days, read-out: compound levels in blood at later time-points) was < 10 ng/mL and the concentration at 1 h ([2]; rat, blood, subcutaneous, 20 mg/kg, 20 mg/kg SC single dose, 7-day study, 1 h, read-out: PK, blood concentration, individual rat) was 132 ng/mL. For the same compound, the concentration at 0.5 h ([2]; rat, blood, subcutaneous, 20 mg/kg, 20 mg/kg SC, 14-day study, 0.5 h, read-out: blood concentration, individual rat) was 126 ng/mL, the concentration at 2 h ([2]; rat, blood, subcutaneous, 20 mg/kg, 20 mg/kg SC, 14-day study, 2 h, read-out: blood concentration, individual rat) was 124 ng/mL and the concentration at 240 h ([2]; rat, blood, subcutaneous, 20 mg/kg, 20 mg/kg SC, 14-day study, 240 h, read-out: blood concentration, individual rat) was 1.68 ng/mL. For the same compound, the concentration at […] ([2]; rat, blood, subcutaneous, 20 mg/kg, 20 mg/kg SC, 14-day study, […], read-out: blood concentration, individual rat) was 1.71 ng/mL, the concentration at 24 h ([2]; rat, whole blood, subcutaneous, 1 mg/kg, 1 mg/kg SC, 14-day study, 24 h, read-out: blood concentration, individual rat) was 7.14 ng/mL and the concentration at 72 h ([2]; rat, whole blood, subcutaneous, 1 mg/kg, 1 mg/kg SC, 14-day study, 72 h, read-out: blood concentration, individual rat) was 1.67 ng/mL. For the same compound, the concentration at 24 h ([2]; rat, whole blood, subcutaneous, 5 mg/kg, 5 mg/kg SC, 14-day study, 24 h, read-out: blood concentration, individual rat) was 29.2 ng/mL, the concentration at 168 h ([2]; rat, whole blood, subcutaneous, 5 mg/kg, 5 mg/kg SC, 14-day study, 168 h, read-out: blood concentration, individual rat) was 4.77 ng/mL and the concentration at 240 h ([2]; rat, whole blood, subcutaneous, 5 mg/kg, 5 mg/kg SC, 14-day study, 240 h, read-out: blood concentration, individual rat) was 1.13 ng/mL.
